As a reminder, the IC50 is the point on the concentration scale where inhibition reaches its midpoint.

The text below walks through data of patent publication US7972610B2, “Antimicrobial compounds” (University of Strathclyde, priority 2005, dated 2011).

This experiment deals with A. castellanii. As to the kind of experiment: alamarBlue assay of susceptibility of A. castellanii to glyphosate. The format is cell-based. The settings on record: Acanthamoeba castellanii; A. castellanii (Neff strain) trophozoites, 96 hr incubation, glyphosate 9 mM to 0.27 μM, FIG. 1; read-out: IC50 (inhibition of A. castellanii, percent alamarBlue reduction relative to untreated control cultures). The method, then: Acanthamoeba polyphaga (Strain No. 1501/18) were obtained from CCAP (Cumbria, UK). Acanthamoeba castellanii (Neff strain) was kindly obtained from Keith Vickerman (Glasgow, UK). A. castellanii and A. polyphaga trophozoites were grown in (a) Rich media containing […] (Fluka, UK) and 0.9% maltose (Sigma, UK) and supplemented with 1% Penicillin, Streptomycin and Amphotericin B (All Sigma, UK) or (b) modified 11 containing 20% Rich media. Acanthamoeba spp. were incubated at room temperature in 75 cm^2 tissue culture flasks until 90-95% confluence, then harvested or sub-cultured using Accutase (Sigma, UK).
The susceptibility of the A. castellanii to glyphosate as assessed by the almarBlue assay. The susceptibility of A. castellanii to glyphosate was determined by a modification of the method described by McBride et al., (2005). A. castellanii cells were grown in 75 cm^2 flasks until 90-95% confluence and harvested using Accutase (Sigma, UK). […] AlamarBlue reduction was assessed as previously described. The percent inhibition of almarBlue reduction was calculated using the formula: (εox)λAλ1−(εox)λ1Aλ. of treated Acanthamoeba/(εox)λA°λ1−(εox)λ1A°λ of untreated Acanthamoeba×100
[where: °λ1=absorbance of untreated control with alamarBlue at 570 nm); °λ2=absorbance of untreated control with alamarBlue at 600 nm)]. […]
(Resazurin is reduced to fluorescent resorufin, in cell work by metabolically active cells.)

With `O=C(O)CNCP(=O)(O)O` [Glyphosate, N-(phosphonomethyl)glycine], the IC50 is 2.19 to 4.39 µM.
